This note sets out measurements from patent publication US11046688B2, “Inhibitor compounds” (Cancer Research Technology Limited, priority 2012, dated 2021).

pIC50: −log10 of the molar value.

Sequence of full length MPS1 (P33981 whole entry): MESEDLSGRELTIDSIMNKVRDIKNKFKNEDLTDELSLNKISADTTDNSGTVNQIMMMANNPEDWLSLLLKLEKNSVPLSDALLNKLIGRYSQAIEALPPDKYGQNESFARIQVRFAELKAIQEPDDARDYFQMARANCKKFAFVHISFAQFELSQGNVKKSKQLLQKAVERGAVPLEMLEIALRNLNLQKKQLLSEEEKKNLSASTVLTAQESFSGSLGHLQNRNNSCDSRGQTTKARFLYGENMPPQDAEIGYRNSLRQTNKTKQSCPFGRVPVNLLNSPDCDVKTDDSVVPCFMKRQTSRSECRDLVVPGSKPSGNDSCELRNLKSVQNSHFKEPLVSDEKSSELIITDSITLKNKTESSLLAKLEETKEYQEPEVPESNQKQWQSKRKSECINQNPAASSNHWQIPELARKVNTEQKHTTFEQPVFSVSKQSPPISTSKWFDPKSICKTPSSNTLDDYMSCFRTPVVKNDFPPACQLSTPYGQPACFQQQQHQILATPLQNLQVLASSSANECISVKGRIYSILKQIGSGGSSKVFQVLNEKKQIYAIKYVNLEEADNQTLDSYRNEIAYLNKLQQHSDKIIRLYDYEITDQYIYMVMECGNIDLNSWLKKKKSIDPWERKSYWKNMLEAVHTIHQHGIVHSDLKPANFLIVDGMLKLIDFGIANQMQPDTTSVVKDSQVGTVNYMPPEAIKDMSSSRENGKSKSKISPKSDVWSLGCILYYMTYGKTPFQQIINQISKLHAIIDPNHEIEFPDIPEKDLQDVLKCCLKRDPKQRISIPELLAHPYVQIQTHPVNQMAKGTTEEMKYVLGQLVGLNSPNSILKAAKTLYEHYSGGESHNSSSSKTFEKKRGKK

The assay concerns the target full length MPS1 (Homo sapiens (Human), UniProt P33981). Nature of the assay: Measurement of Inhibition of MPS1 Kinase (Caliper EZ reader, fluorescent labelled peptide H236). It is filed as biochemical. The note with it: full length MPS1 12.5 nM or 3 nM, H236 peptide 5 μM, ATP 10 μM, 60 min at room temperature. The method, then:
The reaction was carried out for 60 min at room temperature and stopped by the addition of buffer (10 μl) containing 20 mM EDTA, 0.05% (v/v) Brij-35, in 0.1M HEPES-buffered saline (Free acid, Sigma. UK). The plate was read on a Caliper EZ reader II (Caliper Life Sciences).
The % inhibition of the compounds is calculated relative to the means of selected control wells. […] The % inhibitions at each concentration are then fitted to a 4 parameter logistic fit: y=(a+((b−a)/(1+((c/x^d)))) where a=asym min, b=asym max, c=IC50 and d=hill coefficient
Regarding `COc1cc(-c2cn(C)nc2C)ccc1Nc1ncc2ccnc(NCC(C)(C)C)c2n1` [Example 48, N2-(4-(1,3-dimethyl-1H-pyrazol-4-yl)-2-methoxyphenyl)-N8-neopentylpyrido[3,4-d]pyrimidine-2,8-diamine], the negative logarithm of the IC50 (pIC50) (commonly −log10 of the IC50, conventionally taken in molar units) is 8.30.

On to `COc1cc(-c2cnn(C)c2C)ccc1Nc1ncc2ccnc(NCC(C)(C)C)c2n1` [Example 49, N2-(4-(1,5-dimethyl-1H-pyrazol-4-yl)-2-methoxyphenyl)-N8-neopentylpyrido[3,4-d]pyrimidine-2,8-diamine], for which the negative logarithm of the IC50 (pIC50) is 8.30.

Compound `COc1cc(-c2cnn(C)c2)ccc1Nc1ncc2c(C)cnc(NCC(C)(C)C)c2n1` [Example 149, N^2-(2-methoxy-4-(1-methyl-1H-pyrazol-4-yl)phenyl)-5-methyl-N^8-neopentylpyrido[3,4-d]pyrimidine-2,8-diamine] showed a negative-log IC50 (pIC50) of 7.47.

Turning to `COc1nc(-c2nnnn2C)ccc1Nc1ncc2ccnc(NCC(C)(C)OC)c2n1` [Example 161, N^8-(2-Methoxy-2-methylpropyl)-N^2-(2-methoxy-6-(1-methyl-1H-tetrazol-5-yl)pyridin-3-yl)pyrido[3,4-d]pyrimidine-2,8-diamine], the pIC50 was 7.51.
